# Measured values reported in patent US11458175B2, “Composition comprising Lactobacillus plantarum CJLP475 strain and Lactobacillus plantarum CJLP243 strain and use thereof” (CJ CHEILJEDANG CORPORATION, priority 2018, dated 2022).
# Experiments:
# [1] = system: porcine epidemic diarrhea virus (PEDV, SM98 or KPEDV9 strain); assay: Inhibitory effect against viral infection, PBMC culture broth on IPEC-J2 cells; assay type: cell-based; conditions: PBMC culture broth on IPEC-J2, PED virus 100 TCID50/mL, 48 hours
# Protocol: In order to measure the inhibitory effect of the composition including the Lactobacillus plantarum CJLP475 strain and the Lactobacillus plantarum CJLP243 strain against viral infection, porcine epidemic diarrhea virus (PEDV, SM98 or KPEDV9 strain) was prepared. Specifically, the virus was proliferated in Vero cells (CCL-81, kidney epithelial cells extracted from Chlorocebus), and MEM (Eagle's Minimum Essential Medium, Gibco BRL, USA), heat-inactivated 10% FBS (fetal bovine serum, v/v) and 1% (v/v) penicillin/streptomycin were as the media for culturing Vero cells. The Vero cells were incubated as a monolayer, washed twice with the media, and then all the solutions were removed. The virus was mixed at 0.1 MOI (multiplicity of infection) level in FBS-free MEM containing trypsin treated with 5 μg/ml TPCK (N-tosyl-L-phenylalanine chloromethyl ketone), treated with a minimal volume of the prepared culture cells, and then incubated in a 37° C. cell incubator containing 5% CO2 for 2 to 3 days.
# The viral infection was determined by the formation of virus syncytia. […] Subsequently, the cells were added with a culture broth, in which the virus was subjected to a 2-fold serial dilution, and incubated for 24 to 48 hours to confirm viral infection, and the virus titer was calculated by the Reed & Muench method. […]
# [2] = system: red blood cells (sheep blood 5% agar); assay: Hemolytic activity on blood agar plates; assay type: cell-based; conditions: 37° C., 24 hours
# Protocol: […]-Hemolysis is a phenomenon in which phospholipids supplied by red blood cells are hydrolyzed by phospholipid enzymes produced from harmful bacteria, resulting in hemolysis of red blood cells. In order to determine the hemolytic activity of the Lactobacillus plantarum CJLP475 strain and the Lactobacillus plantarum CJLP243 strain, blood agar plates (sheep blood 5% agar, Hanilkomed, Korea) were used. The strains were streaked into the prepared blood agar plates and incubated at 37° C. for 24 hours to confirm the hemolysis.
# sows = assay: Effect on immunity and colostrum of sows (IgA and IgG ELISA); assay type: in vivo; conditions: vs control; for total IgA content in the serum of sows / total IgG content in the serum of sows: sows fed 10^10 to 10^11 CFU per day for 4 weeks
# Protocol: An experiment was carried out in order to confirm the effect of the composition including the Lactobacillus plantarum CJLP475 strain and the Lactobacillus plantarum CJLP243 strain on the immunity and colostrum of sows when the composition was given to the sows, as follows: fifteen sows at 6 weeks before delivery in the same delivery period were selected randomly for each experimental group from the farms in which no PED virus had occurred. All of the sows used in the experiment were inoculated with the PED virus vaccine at 5 weeks and 2 weeks before delivery. The experiment was carried out in a total of four experimental groups, i.e., a control group in which no strain was fed, a group fed with CJLP475 alone, a group fed with CJLP243 alone, and a group fed with the composition including CJLP475 strain and CJLP243 strain. The feed was given in the form of common feeds without antibiotics, and water was given to be consumed freely. The Lactobacillus plantarum CJLP475 strain, the Lactobacillus plantarum CJLP243 strain, and the composition were produced in the form of freeze-dried powder and stored in a refrigerator, and then added on top of the feed when given to the sows so that each sow was given the feed in an amount of 10^10 to 10^11 CFU per day according to the treatment conditions. The sows were fed for a total of 4 weeks, and then the serum and colostrum of the sows were examined using an IgA and IgG ELISA kit.
# PED virus KPEDV9 = assay: Inhibition of PED virus infection by immune cells of weaned piglets fed with the strains; assay type: in vivo; parameters: key: ++: Complete Inhibition; +: Partial Inhibition; −: Infected; conditions: piglets fed 10^10 CFU per day for 3 weeks; for Inhibitory Effect against PED virus infection, mLN, KPEDV9: immune cells of mesenteric lymph nodes; for Inhibitory Effect against PED virus infection, Spin, KPEDV9: immune cells of spleen
# Protocol: (§1) In order to confirm the effect of the composition including the Lactobacillus plantarum CJLP243 strain and the Lactobacillus plantarum CJLP475 strain on the immunity upon feeding, an experiment was carried out as follows:
# (§2) Thirty-two 21-day-old weaned piglets were purchased and raised in a container farm for 3 weeks. The feed was given in the form of common crumble feeds without antibiotics. The composition including the Lactobacillus plantarum CJLP475 strain and the Lactobacillus plantarum CJLP243 strain was produced in the form of freeze-dried powder and stored in a refrigerator, and each piglet was given the feed in an amount of 10^10 CFU per day. After 3 weeks of oral administration, four piglets per treatment group were autopsied to collect blood and tissue samples so as to determine the effect of the composition on the immunity of the piglets.
# (§3) In order to obtain immune cells from the spleen (Spin) and the mesenteric lymph nodes (mLN), the chopped tissue was powdered using a plunger of a syringe and a 70-micrometer cell strainer (BD Falcon), and then the cells were washed using an RPMI-1640 medium (Roswell Park Memorial Institute-1640, Gibco BRL, Grand Island, N.Y., USA). The remaining RBCs (red blood cells) were removed using an RBC lysis buffer (eBioscience, USA) prior to the last washing step. The immune cells collected after the last washing step were stained with Trypan blue and counted with a hemocytometer to be used.
# (§4) For evaluation of the inhibitory effect against viral infection, PED virus was incubated in the same manner as in Example 6 described above, and the content thereof was measured. The immune cells obtained from the weaned piglets without feeding of the composition were used as a negative control.
# PED virus SM98 = assay: as above; assay type: in vivo; parameters: key: ++: Complete Inhibition; +: Partial Inhibition; −: Infected; conditions: piglets fed 10^10 CFU per day for 3 weeks; for Inhibitory Effect against PED virus infection, mLN, SM98: immune cells of mesenteric lymph nodes; for Inhibitory Effect against PED virus infection, Spin, SM98: immune cells of spleen
# Protocol: as §1, §2, §3, §4
# piglets = assay: Immunity of piglets born from fed sows (IgA ELISA); assay type: in vivo; conditions: 4 days after given colostrum, vs control
# Protocol: In order to confirm the effect of the composition including the Lactobacillus plantarum CJLP475 strain and the Lactobacillus plantarum CJLP243 strain on the immunity of piglets born from the sows fed with the composition, an experiment was carried out using sows as in Example 9. Further, blood was collected from the piglets born from the sows 4 days after given colostrum to carry out an immunological analysis using an IgA ELISA kit.
# [3] = Bile-resistance assessment in artificial bile medium (viable cell count); assay type: physicochemical; conditions: artificial bile medium (MRS with 0.5% oxgall), 37° C.
# Protocol: An artificial bile medium was prepared for the assessment of bile-resistance. More specifically, the artificial bile medium was prepared by adding 0.5% oxgall (bull bile) to a liquid MRS medium, followed by sterilization.
# (§5) The strains of Example 1 were subjected to a static culture in a liquid MRS medium at 37° C. for 18 hours after the second subculture. 1% of the pre-incubated strains were inoculated to the artificial bile medium and subjected to a static culture at 37° C., and the culture broth was sampled at 0 hour and 24 hours. The sampled culture broth was serial diluted and smeared on the solid MRS medium, and incubated at 37° C. for 48 hours to measure viable cell count.
# (§6) In order to compare the acid-resistance and bile-resistance of the Lactobacillus plantarum CJLP475 strain and the Lactobacillus plantarum CJLP243 strain with those of the conventionally known strains, the acid-resistance and the bile-resistance of the Lactobacillus plantarum standard strain (KCCM12116) obtained from the Korean Culture Center of Microorganisms were assessed in the same manner as the above method.
# [4] = Antibiotic susceptibility test with antibiotic discs; conditions: for resistance to antibiotics: ampicillin, clindamycin, gentamicin, kanamycin, erythromycin, ampicillin/sulbactam, chloramphenicol, streptomycin discs
# Protocol: The Lactobacillus plantarum CJLP475 strain and the Lactobacillus plantarum CJLP243 strain were independently inoculated into a liquid MRS medium and subjected to a static culture at 37° C. for 24 hours. The thus-cultured bacteria were soaked in sterilized cotton swabs and smeared on a Mueller Hinton II solid medium (Difco), and then antibiotic discs were placed on the medium and incubated at 37° C. for 24 hours. Ampicillin, clindamycin, gentamicin, kanamycin, erythromycin, ampicillin/sulbactam, chloramphenicol, and streptomycin discs (Oxoid, UK) were used as antibiotic discs for the antibiotic test.
# [5] = Acid-resistance assessment in artificial gastric juice medium (viable cell count); assay type: physicochemical; conditions: artificial gastric juice medium (MRS with pepsin, pH 2.5), 37° C.
# Protocol: An artificial gastric juice medium was prepared for the assessment of acid-resistance. More specifically, the artificial gastric juice medium was prepared by adding pepsin to a liquid MRS medium so as to adjust the pH to 2.5, followed by sterilization.
# as §5, with “gastric juice” for “bile”, “3” for “24”
# as §6
Substance,"inhibitory effect against PED virus infection (microscopy, crystal violet) [1]",hemolysis [2],total IgA content in the serum of sows (sows),total IgG content in the serum of sows (sows),"Inhibitory Effect against PED virus infection, mLN, KPEDV9 (PED virus KPEDV9)","Inhibitory Effect against PED virus infection, Spin, KPEDV9 (PED virus KPEDV9)","Inhibitory Effect against PED virus infection, mLN, SM98 (PED virus SM98)","Inhibitory Effect against PED virus infection, Spin, SM98 (PED virus SM98)","Bile-Resistance Assessment, viable cell count 0 hr [3]","Bile-Resistance Assessment, viable cell count 24 hrs [3]",resistance to antibiotics [4],"Acid-Resistance Assessment, viable cell count 0 hr [5]","Acid-Resistance Assessment, viable cell count 3 hrs [5]",also measured
Lactobacillus plantarum CJLP475,the virus infection was suppressed,did not show hemolysis,higher than those in the control group,higher than those in the control group,++,++,++,++,1.3 × 10^8 CFU/mL,1.1 × 10^7 CFU/mL,not resistant,1.1 × 10^6 CFU/mL,1.1 × 10^7 CFU/mL,total IgA antibody titer in the colostrum (sows; sow colostrum during delivery): higher; total IgA content in the piglet serum (piglets): higher; Radius of Growth Inhibition Area Centered Around Antibiotics ([4]; Amp10 (Ampicillin) disc): 7.5 mm; Radius of Growth Inhibition Area Centered Around Antibiotics ([4]; C30 (Clindamycin) disc): 7 mm; Radius of Growth Inhibition Area Centered Around Antibiotics ([4]; CN120 (Gentamicin) disc): 5 mm; Radius of Growth Inhibition Area Centered Around Antibiotics ([4]; DA2 (Streptomycin) disc): 4.5 mm; Radius of Growth Inhibition Area Centered Around Antibiotics ([4]; E15 (Erythromycin) disc): 12 mm; Radius of Growth Inhibition Area Centered Around Antibiotics ([4]; K30 (Kanamycin) disc): 1.5 mm; Radius of Growth Inhibition Area Centered Around Antibiotics ([4]; S10 (Chloramphenicol) disc): 3.5 mm; Radius of Growth Inhibition Area Centered Around Antibiotics ([4]; SAM20 (Ampicillin/Sulbactam) disc): 7 mm
Lactobacillus plantarum CJLP243,the virus infection was suppressed,did not show hemolysis,higher than those in the control group,higher than those in the control group,++,++,+,++,3.2 × 10^7 CFU/mL,7.3 × 10^8 CFU/mL,not resistant,4.5 × 10^7 CFU/mL,4.4 × 10^7 CFU/mL,–
